Measurements reported in patent US20130203718A1 (priority 2010, published 2013).

Columns and labels:
hMR = target: T1, hMR (Homo sapiens, UniProt P08235); experiment: APRn selectivity: transactivation in HEK293T cells transiently expressing hMR; assay type: cell-based; conditions: mean±SEM; for MR Antagonist efficacy (%): aldosterone 10^−9 M
T1 construct: expressed in transfected cells; host or cells: HEK 293T
T1 sequence (P08235 1-984): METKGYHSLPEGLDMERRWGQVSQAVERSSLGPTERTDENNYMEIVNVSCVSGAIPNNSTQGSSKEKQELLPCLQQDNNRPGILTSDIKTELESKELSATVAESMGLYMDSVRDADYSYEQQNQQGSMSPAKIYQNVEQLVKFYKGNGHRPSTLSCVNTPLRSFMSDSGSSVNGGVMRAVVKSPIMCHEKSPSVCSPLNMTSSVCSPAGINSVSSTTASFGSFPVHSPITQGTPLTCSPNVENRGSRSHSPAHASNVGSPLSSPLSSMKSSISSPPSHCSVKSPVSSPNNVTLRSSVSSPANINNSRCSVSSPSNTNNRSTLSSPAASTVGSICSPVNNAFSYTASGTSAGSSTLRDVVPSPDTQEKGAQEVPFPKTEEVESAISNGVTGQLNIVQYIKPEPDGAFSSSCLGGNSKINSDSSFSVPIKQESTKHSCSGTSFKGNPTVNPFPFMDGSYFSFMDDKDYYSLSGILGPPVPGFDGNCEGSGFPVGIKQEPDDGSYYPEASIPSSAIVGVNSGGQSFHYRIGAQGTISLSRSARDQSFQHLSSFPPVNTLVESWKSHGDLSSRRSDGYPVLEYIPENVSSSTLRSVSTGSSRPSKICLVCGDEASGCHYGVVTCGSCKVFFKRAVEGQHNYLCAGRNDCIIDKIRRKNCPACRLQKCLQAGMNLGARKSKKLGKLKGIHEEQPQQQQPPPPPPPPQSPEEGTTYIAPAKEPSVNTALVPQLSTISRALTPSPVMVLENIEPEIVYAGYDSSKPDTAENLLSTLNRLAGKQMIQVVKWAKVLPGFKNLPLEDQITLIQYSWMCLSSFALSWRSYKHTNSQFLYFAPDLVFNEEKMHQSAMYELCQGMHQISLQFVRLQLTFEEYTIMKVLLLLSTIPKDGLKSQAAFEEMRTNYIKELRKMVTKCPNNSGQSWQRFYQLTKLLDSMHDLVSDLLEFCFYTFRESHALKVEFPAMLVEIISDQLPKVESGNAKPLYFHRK
Experimental: Measurement of the APRn Selectivity in HEK 293T.
The HEK-293T cells were cultured and transfected according to the method described above for the PR transactivation assays. The expression vectors pcDNA-hAR, kindly provided by G. A. Coetzee, pchGR (Hellal-Levy, C et al. FEBS Lett 1999, 464, 9), and pchMR (Fagart, J. et al. EMBO J. 1998, 17, 3317) were used for studying the ability of APRn to activate or inactivate the AR, GR and MR, respectively. For each transfection assays, 2 μg of the expression vector was used together with 7 μg of the GRE2-Luc reporter vector. Dihydrotestosterone (DHT), dexamethasone (Dex) and Aldosterone (Aldo) were selected as AR, GR and MR ligands, respectively. They were used at the concentration of 10^−9 M. The APRn agonist and antagonist efficacy for AR, GR and MR were measured as described above for PR. The results are the mean±SEM of three independent experiments.
Transfection assays were performed in HEK 293T cells by using expression vectors for the hAR, hGR and hMR and the GRE2-Luc reporter used for the PR transactivation assays.

| SMILES | melting point | MR Antagonist efficacy (%) (hMR) | MR Agonist efficacy (%) (hMR) |
| --- | --- | --- | --- |
| CC#C[C@]1(O)CCC2C3CC[C@H]4C[C@@H](F)CC[C@]4(C)C3CC[C@@]21C (stereo partly drawn) [APR-43, 3β-Fluoro-17α-(1-propynyl)-5α-androstan-17β-ol] | 139 to 140 °C |  |  |
| C[C@@H]1CCC2C3CC=C4C[C@@H](F)CC[C@]4(C)C3CC[C@]2(C)[C@H]1F (stereo partly drawn) [APR-19, 3β,17α-Difluoro-17α-methyl-D-Homo-pregn-5-ene] |  | −1.0 ± 3.5% | 0.57 ± 0.07% |
| C[C@]12CCC3C(CC=C4C[C@@H](F)CC[C@@H]43)C1CCC2=O (stereo partly drawn) [APR-47, 3β-Fluoro-19-nor-androst-5-en-17-one] | 102 to 103 °C | 2.2 ± 2.1% | 0.50 ± 0.14% |
| CC#C[C@]1(O)CCC2C3CC[C@H]4CCCC[C@]4(C)C3CC[C@@]21C (stereo partly drawn) [APR-42, 17α-(1-Propynyl)-5α-androstan-17β-ol] | 150 to 151 °C | 0.4 ± 2.6% | 0.57 ± 0.05% |
| CC#C[C@]1(O)CCC2C3CC=C4C[C@@H](F)CC[C@@H]4C3CC[C@@]21C (stereo partly drawn) [APR-51, 3β-Fluoro-17α-(1-propynyl)-19-nor-androst-5-en-17β-ol] | 72 to 73 °C |  |  |
| CC#C[C@]1(O)CCC2C3CC[C@H]4CCCC[C@@H]4C3CC[C@@]21C (stereo partly drawn) [APR-54, 17α-(1-Propynyl)-19-nor-5-androstan-17β-ol] |  | 3.4 ± 6.2% | 0.53 ± 0.11% |
| CC(=O)[C@H]1CC[C@H]2[C@@H]3CC=C4C[C@@H](F)CC[C@]4(C)[C@H]3CC[C@]12C [APR-16, 3β-Fluoropregn-5-en-20-one] | 166 to 167 °C | −2.7 ± 3.3% | 0.53 ± 0.05% |
